The results in this text go back to publication PMC5547395 (EXCLI Journal, 2017).

In assay [1] the target is T1, Sterol 14α-demethylase (CYP51) from Candida albicans (CaCYP51) (Candida albicans, UniProt P10613).
T1 construct: gene ERG11
As to the kind of experiment: UV-visible difference spectroscopy (type II spectral response) with isolated CYP51. Type of assay: binding.

Another assay has as its target T2, human CYP51 (hCYP51) (Homo sapiens, UniProt Q16850).
T2 construct: gene CYP51A1
T2 sequence (Q16850 1-509): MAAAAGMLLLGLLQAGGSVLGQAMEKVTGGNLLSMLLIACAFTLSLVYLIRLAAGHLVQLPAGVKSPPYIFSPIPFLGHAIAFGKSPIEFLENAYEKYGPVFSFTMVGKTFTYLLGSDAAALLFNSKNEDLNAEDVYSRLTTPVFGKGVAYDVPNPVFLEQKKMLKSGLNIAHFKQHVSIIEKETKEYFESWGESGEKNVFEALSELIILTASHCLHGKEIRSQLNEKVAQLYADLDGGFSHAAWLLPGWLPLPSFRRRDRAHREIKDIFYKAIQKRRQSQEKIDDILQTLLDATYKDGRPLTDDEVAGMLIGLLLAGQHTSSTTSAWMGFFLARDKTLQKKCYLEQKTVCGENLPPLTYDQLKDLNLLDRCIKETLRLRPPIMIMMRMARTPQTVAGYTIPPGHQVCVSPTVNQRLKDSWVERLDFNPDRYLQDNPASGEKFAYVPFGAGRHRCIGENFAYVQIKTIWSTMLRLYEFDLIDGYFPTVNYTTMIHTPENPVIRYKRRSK
The experiment in a line: Kd reported; presumably UV-visible difference spectroscopy (type II), human assay not described in Methods. Type of assay: binding.

T1 sequence (P10613 whole entry): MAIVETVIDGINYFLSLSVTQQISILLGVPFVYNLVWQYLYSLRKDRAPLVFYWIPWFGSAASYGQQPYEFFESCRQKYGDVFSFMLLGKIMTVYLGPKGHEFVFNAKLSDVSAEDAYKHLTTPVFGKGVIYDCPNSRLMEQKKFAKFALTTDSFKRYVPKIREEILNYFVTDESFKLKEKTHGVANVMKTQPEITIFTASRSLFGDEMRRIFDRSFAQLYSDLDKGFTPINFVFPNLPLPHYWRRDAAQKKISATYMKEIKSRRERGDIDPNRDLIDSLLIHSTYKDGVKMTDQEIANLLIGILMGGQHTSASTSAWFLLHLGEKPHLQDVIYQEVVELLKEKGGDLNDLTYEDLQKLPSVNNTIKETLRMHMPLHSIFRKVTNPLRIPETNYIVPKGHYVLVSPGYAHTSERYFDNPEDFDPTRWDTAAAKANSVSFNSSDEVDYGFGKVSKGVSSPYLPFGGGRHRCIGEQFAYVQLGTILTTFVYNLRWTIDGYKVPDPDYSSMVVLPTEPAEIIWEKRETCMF

The Kd is the concentration at which binding is half-saturated. Read a high Kd as weaker binding. On to `CC(=O)N1CCN(c2ccc(OC[C@H]3CO[C@](Cn4ccnc4)(c4ccc(Cl)cc4Cl)O3)cc2)CC1` (racemic) [ketoconazole], for which the Kd (in assay [1]; on human CYP51 (hCYP51)) was less than 50 nM throughout.
